# Source: ChEMBL document CHEMBL4339199 (ACS Med Chem Lett, 2019)
# pIC50: −log10 of the molar value.
# What was measured:
# [1] = target: Tyrosine-protein kinase JAK1 (Homo sapiens, UniProt P23458); assay: Inhibition of GST-tagged JAK1 (unknown origin) using fluoresceinated peptide as substrate measured after 3 hrs by electrophoresis method
# [2] = target: T1, Tyrosine-protein kinase JAK3 (Homo sapiens, UniProt P52333); assay: Inhibition of GST-tagged JAK3 (unknown origin) using fluoresceinated peptide as substrate measured after 3 hrs by electrophoresis method
# T1 sequence (P52333 whole entry): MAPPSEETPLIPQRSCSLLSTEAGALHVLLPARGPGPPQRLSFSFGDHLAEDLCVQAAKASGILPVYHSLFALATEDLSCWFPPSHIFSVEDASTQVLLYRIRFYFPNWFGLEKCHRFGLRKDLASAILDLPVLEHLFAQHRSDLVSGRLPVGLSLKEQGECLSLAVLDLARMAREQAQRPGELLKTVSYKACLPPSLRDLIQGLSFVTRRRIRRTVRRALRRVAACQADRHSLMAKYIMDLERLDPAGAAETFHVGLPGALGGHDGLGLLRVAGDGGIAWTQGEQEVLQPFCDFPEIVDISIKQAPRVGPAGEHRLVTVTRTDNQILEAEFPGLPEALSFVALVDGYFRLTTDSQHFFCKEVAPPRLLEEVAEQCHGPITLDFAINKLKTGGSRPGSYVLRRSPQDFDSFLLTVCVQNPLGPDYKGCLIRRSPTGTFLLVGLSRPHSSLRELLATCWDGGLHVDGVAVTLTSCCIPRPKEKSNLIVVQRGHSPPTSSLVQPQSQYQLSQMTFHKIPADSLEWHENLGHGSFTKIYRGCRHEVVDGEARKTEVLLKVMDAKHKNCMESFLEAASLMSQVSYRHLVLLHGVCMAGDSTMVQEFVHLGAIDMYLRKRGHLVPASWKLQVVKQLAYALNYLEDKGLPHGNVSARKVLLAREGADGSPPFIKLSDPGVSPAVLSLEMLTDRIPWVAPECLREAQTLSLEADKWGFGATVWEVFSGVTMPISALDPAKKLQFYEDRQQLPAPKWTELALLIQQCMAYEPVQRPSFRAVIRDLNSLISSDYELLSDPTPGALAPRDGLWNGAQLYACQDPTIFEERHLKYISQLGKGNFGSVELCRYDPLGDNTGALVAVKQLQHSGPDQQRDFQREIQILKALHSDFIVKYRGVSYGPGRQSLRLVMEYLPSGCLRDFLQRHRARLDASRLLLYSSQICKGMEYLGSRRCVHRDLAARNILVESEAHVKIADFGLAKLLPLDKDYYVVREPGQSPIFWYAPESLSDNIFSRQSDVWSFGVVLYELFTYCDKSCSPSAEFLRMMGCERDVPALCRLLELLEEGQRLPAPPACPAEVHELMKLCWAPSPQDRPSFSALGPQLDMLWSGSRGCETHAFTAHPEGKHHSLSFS
# [3] = target: Non-receptor tyrosine-protein kinase TYK2 (Homo sapiens, UniProt P29597); assay: Inhibition of […] TYK2 (unknown origin) using fluoresceinated peptide as substrate measured after 3 hrs by electrophoresis method
# Sequence of Non-receptor tyrosine-protein kinase TYK2 (P29597 whole entry): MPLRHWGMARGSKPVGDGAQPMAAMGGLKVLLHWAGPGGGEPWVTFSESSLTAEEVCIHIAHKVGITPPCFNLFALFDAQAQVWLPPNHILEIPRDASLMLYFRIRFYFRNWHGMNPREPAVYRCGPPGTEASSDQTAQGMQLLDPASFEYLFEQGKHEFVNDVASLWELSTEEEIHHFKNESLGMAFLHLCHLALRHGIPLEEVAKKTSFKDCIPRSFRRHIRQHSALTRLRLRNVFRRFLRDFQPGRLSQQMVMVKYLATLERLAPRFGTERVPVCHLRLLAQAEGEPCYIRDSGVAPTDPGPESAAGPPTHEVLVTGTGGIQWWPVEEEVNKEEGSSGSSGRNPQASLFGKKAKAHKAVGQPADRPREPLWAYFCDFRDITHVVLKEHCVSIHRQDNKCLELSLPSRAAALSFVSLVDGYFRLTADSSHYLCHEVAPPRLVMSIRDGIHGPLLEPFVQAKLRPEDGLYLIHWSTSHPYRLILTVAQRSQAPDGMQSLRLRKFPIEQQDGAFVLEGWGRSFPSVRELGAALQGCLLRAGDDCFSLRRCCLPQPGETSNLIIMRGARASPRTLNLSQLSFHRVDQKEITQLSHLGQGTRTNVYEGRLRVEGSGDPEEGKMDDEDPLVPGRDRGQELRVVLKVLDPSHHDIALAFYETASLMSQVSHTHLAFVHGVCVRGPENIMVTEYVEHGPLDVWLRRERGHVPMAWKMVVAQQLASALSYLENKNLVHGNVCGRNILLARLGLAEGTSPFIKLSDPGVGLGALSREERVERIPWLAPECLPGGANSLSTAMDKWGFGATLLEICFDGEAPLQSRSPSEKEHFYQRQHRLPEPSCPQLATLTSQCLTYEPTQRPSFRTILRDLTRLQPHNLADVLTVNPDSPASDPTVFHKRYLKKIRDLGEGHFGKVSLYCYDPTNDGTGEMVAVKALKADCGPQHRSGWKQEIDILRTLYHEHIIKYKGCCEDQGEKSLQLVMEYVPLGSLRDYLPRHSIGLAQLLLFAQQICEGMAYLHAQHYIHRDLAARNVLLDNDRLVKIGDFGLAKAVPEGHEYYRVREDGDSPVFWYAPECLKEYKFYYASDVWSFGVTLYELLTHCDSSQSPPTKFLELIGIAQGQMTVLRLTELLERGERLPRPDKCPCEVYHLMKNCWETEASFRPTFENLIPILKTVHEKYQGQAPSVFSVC
# Blood = assay: Inhibition of IL2-induced IFNgamma production in CD3/CD28 antibody-stimulated human whole blood measured after 18 hrs by ELISA; format: functional, tissue-based
# [4] = target: Tyrosine-protein kinase JAK2 (Homo sapiens, UniProt O60674); assay: Inhibition of GST-tagged JAK2 (unknown origin) using fluoresceinated peptide as substrate measured after 3 hrs by electrophoresis method
# Sequence of Tyrosine-protein kinase JAK2 (O60674 whole entry): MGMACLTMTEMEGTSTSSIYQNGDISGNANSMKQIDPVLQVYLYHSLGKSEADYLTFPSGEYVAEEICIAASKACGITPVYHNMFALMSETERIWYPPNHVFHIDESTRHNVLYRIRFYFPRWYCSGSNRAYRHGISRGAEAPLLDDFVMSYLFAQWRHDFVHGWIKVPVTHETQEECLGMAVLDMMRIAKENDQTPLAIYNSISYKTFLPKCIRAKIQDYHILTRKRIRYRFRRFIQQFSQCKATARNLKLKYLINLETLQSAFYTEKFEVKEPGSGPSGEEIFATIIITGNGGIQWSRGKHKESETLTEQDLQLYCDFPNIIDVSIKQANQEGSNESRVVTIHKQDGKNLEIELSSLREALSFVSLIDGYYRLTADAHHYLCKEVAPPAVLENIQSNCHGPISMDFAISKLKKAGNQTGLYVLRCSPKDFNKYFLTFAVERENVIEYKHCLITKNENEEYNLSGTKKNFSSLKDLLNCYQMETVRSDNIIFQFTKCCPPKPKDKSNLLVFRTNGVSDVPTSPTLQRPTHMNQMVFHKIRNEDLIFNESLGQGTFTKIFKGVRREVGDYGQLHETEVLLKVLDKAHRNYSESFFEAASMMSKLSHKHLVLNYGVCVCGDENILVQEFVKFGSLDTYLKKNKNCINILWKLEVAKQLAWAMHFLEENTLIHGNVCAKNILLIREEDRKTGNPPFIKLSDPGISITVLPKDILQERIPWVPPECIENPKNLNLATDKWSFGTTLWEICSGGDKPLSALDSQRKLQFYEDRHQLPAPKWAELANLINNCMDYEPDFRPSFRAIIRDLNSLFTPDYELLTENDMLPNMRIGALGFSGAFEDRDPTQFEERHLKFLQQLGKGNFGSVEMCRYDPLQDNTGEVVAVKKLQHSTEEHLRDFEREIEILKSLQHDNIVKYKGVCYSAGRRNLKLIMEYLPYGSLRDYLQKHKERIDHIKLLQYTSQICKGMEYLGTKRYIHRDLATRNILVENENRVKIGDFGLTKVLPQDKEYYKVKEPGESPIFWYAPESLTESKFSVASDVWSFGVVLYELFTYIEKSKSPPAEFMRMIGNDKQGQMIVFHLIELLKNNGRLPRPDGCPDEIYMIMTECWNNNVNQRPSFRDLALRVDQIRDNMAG
# T-cell = assay: Inhibition of IL2-induced human PBMC-derived T cell proliferation preincubated for 60 mins followed by IL-2 stimulation and measured after 3 days by [3H]thymidine incorporation based topcount method; format: functional
# [5] = Aqueous solubility of the compound; format: physicochemical; details: buffer
# [6] = Stability in mouse microsomes assessed as parent compound remaining measured after 10 mins; format: ADME, Microsome; details: read-out: Stability
# [7] = Lipophilicity, log P of the compound; format: physicochemical; details: octanol/water
# [8] = Time at which plasma concentration stays above in vitro IC50 for inhibition of IL2-induced IFNgamma production in CD3/CD28 antibody-stimulated human whole blood in mouse at 10 mg/kg, po; format: organism-based; details: in vivo
# [9] = Solubility of the compound in 5%EtOH/5%TPGS/90%PEG300 formulation; format: physicochemical
# [10] = Stability in rat liver microsomes; format: ADME, Microsome
# [11] = Permeability of the compound by PAMPA; format: ADME
# [12] = Stability in mouse liver microsomes; format: ADME, Microsome
# [13] = Stability in human liver microsomes; format: ADME, Microsome
# [14] = Solubility of the compound in phosphate buffer using crystalline compound; format: physicochemical
# [15] = Solubility of the compound in water using amorphous compound; format: physicochemical; details: buffer
# [16] = Octanol-water partition coefficient, log P of the compound at pH 6.5 by HPLC analysis; format: physicochemical
# [17] = Cmax in mouse at 10 mg/kg, po; format: ADME, organism-based; set-up: dose 10 mg/kg, route oral; details: in vivo
# [18] = Cmax in mouse at 50 mg/kg, po administered as microsuspension formulation; format: ADME, organism-based; set-up: dose 50 mg/kg, route oral; details: in vivo
# Sequence of Tyrosine-protein kinase JAK1 (P23458 whole entry): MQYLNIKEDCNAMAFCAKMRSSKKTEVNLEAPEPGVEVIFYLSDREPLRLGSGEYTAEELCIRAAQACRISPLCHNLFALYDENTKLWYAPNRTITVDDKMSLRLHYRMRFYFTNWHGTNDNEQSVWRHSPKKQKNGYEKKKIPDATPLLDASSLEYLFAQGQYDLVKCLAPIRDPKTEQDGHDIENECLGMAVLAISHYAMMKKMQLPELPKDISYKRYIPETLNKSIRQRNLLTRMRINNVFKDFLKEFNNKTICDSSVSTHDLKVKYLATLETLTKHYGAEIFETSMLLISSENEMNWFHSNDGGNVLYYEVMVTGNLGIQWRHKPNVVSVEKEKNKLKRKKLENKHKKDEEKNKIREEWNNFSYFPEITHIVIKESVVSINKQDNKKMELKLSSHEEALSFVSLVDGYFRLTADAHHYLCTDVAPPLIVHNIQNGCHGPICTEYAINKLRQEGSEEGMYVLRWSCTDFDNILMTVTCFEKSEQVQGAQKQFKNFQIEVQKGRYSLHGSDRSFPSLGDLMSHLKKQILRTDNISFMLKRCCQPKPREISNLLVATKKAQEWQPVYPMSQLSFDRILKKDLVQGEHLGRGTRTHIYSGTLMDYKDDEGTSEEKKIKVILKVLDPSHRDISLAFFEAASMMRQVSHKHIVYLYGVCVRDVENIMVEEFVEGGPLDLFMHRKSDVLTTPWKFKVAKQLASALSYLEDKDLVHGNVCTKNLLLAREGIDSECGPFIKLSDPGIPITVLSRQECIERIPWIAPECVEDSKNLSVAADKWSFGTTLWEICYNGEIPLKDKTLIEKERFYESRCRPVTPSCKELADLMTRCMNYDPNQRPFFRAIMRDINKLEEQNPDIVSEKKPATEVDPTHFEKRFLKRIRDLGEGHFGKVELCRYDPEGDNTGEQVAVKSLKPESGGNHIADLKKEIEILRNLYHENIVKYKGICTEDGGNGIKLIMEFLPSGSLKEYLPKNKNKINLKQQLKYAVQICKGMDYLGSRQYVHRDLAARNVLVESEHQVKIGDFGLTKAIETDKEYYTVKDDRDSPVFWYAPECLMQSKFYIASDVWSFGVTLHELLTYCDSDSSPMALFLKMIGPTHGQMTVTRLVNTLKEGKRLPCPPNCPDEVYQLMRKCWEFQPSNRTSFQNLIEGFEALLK
SMILES,pIC50 [1],pIC50 [2],pIC50 [3],pIC50 (Blood),pIC50 [4],"pIC50 (T-cell; Homo sapiens, T-cell)",solubility [5] [µg/mL],remaining at 10 min [6] [%],further results
COc1ccc(-c2cc3c(N[C@H](CO)CC4CC4)c(C(N)=O)cnn3c2)cn1,7.49,9.00,6.92,< 5.40,7.60,6.54,,,
CC(C)CCNc1c(C(N)=O)cnn2cc(-c3ccccc3)cc12,6.96,7.96,6.80,< 5.40,6.66,,< 1,< 50,logP [7]: 5.08
NC(=O)c1cnn2cc(-c3ccccc3)cc2c1NC1CCCC1,7.89,8.30,7.70,< 5.40,7.30,,< 1,< 50,
CC(C)(C)CNc1c(C(N)=O)cnn2cc(-c3ccccc3)cc12,7.48,8.10,7.15,< 5.40,6.96,,< 1,< 50,
CC(C)CNc1c(C(N)=O)cnn2cc(-c3ccccc3)cc12,7.52,8.40,7.20,< 5.40,6.80,,< 1,< 50,logP [7]: 3.94
COc1ccc(-c2cc3c(NC(CO)[C@H](O)C4CC4)c(C(N)=O)cnn3c2)cn1 (stereo in doubt; 18),6.21,7.00,5.70,,5.85,,,,pIC50 (T-cell; t-cell): 5.32
COc1ccc(-c2cc3c(NC(CO)CO)c(C(N)=O)cnn3c2)cn1,6.70,7.42,6.48,,,4.96,,,
C[C@@H](O)[C@@H](CO)Nc1c(C(N)=O)cnn2cc(-c3ccccc3)cc12,8.30,,7.47,6.30,7.15,7.15,,,Time [8]: 3 h; solubility [9]: Insoluble; Stability [10]: Stable; permeability [11]: Permeable; Stability [12]: Stable; Stability [13]: Stable; solubility [14]: Insoluble; solubility [15]: Insoluble; logD [16]: 2.42; Cmax [17]: > 3000 nM; Cmax [18]: 100 nM
